Measurements from the NIST ThermoML archive (doi:10.1021/je030107c).
± gives the expanded uncertainty stated by the source.

Assays:
[1] = xn = mol fraction of the nth substance listed; settings: 101.3 kPa, Liquid; for viscosity: Capillary tube (Ostwald / Ubbelohde) method; for speed of sound: Linear variable-path acoustic interferometer; for mass density: Pycnometric method
[2] = refractive index (Na D-line) (dimensionless); xn = mol fraction of the nth substance listed; settings: 101.3 kPa, Liquid, Standard Abbe refractometry

CCCCN(CCCC)CCCC [tributylamine] + C1COCCO1
Settings | mass density, 298.15 K [kg/m3] | mass density, 303.15 K [kg/m3] | mass density, 308.15 K [kg/m3] | refractive index, 298.15 K | refractive index, 303.15 K | refractive index, 308.15 K | speed of sound, 298.15 K [m/s] | viscosity, 298.15 K [mPa·s] | viscosity, 303.15 K [mPa·s] | viscosity, 308.15 K [mPa·s]
[1], x2 = 0 | 774.4 ± 0.4 | 770.1 ± 0.4 | 766.2 ± 0.4 | – | – | – | 1261 ± 3 | 1.36 ± 0.011 | 1.221 ± 0.01 | 1.125 ± 0.009
[1], x2 = 0.1201 | 785.1 ± 0.4 | 780.9 ± 0.4 | 776.8 ± 0.4 | – | – | – | 1253 ± 3 | 1.245 ± 0.01 | 1.142 ± 0.009 | 1.039 ± 0.008
[1], x2 = 0.2122 | 794.7 ± 0.4 | 790.2 ± 0.4 | 785.9 ± 0.4 | – | – | – | 1254 ± 3 | 1.19 ± 0.009 | 1.089 ± 0.009 | 0.989 ± 0.008
[1], x2 = 0.3072 | 806 ± 0.5 | 801.6 ± 0.5 | 797.1 ± 0.5 | – | – | – | 1257 ± 3 | 1.156 ± 0.009 | 1.059 ± 0.008 | 0.963 ± 0.008
[1], x2 = 0.4085 | 820.5 ± 0.5 | 815.9 ± 0.5 | 811.4 ± 0.5 | – | – | – | 1264 ± 3 | 1.137 ± 0.009 | 1.044 ± 0.008 | 0.95 ± 0.008
[1], x2 = 0.5014 | 836.6 ± 0.5 | 832.1 ± 0.5 | 827.5 ± 0.5 | – | – | – | 1272 ± 3 | 1.123 ± 0.009 | 1.032 ± 0.008 | 0.94 ± 0.008
[1], x2 = 0.5972 | 856.9 ± 0.5 | 852.1 ± 0.5 | 847.4 ± 0.5 | – | – | – | 1281 ± 3 | 1.118 ± 0.009 | 1.026 ± 0.008 | 0.934 ± 0.007
[1], x2 = 0.6998 | 884 ± 0.5 | 879.2 ± 0.5 | 874.1 ± 0.5 | – | – | – | 1292 ± 3 | 1.112 ± 0.009 | 1.022 ± 0.008 | 0.933 ± 0.007
[1], x2 = 0.7999 | 917.9 ± 0.5 | 912.6 ± 0.5 | 907.4 ± 0.5 | – | – | – | 1305 ± 3 | 1.114 ± 0.009 | 1.025 ± 0.008 | 0.936 ± 0.007
[1], x2 = 0.8947 | 960.6 ± 0.6 | 955.2 ± 0.6 | 949.9 ± 0.6 | – | – | – | 1320 ± 3 | 1.133 ± 0.009 | 1.042 ± 0.008 | 0.952 ± 0.008
[2], x2 = 0 | – | – | – | 1.4274 ± 0.0011 | 1.4251 ± 0.0011 | 1.4226 ± 0.0011 | – | – | – | –
[2], x2 = 0.1201 | – | – | – | 1.4266 ± 0.0011 | 1.424 ± 0.0011 | 1.4215 ± 0.0011 | – | – | – | –
[2], x2 = 0.2122 | – | – | – | 1.4259 ± 0.0011 | 1.4236 ± 0.0011 | 1.421 ± 0.0011 | – | – | – | –
[2], x2 = 0.3072 | – | – | – | 1.425 ± 0.0011 | 1.4226 ± 0.0011 | 1.4201 ± 0.0011 | – | – | – | –
[2], x2 = 0.4085 | – | – | – | 1.4244 ± 0.0011 | 1.4218 ± 0.0011 | 1.4196 ± 0.0011 | – | – | – | –
[2], x2 = 0.5014 | – | – | – | 1.4234 ± 0.0011 | 1.4209 ± 0.0011 | 1.4184 ± 0.0011 | – | – | – | –
[2], x2 = 0.5972 | – | – | – | 1.4226 ± 0.0011 | 1.4201 ± 0.0011 | 1.4174 ± 0.0011 | – | – | – | –
[2], x2 = 0.6998 | – | – | – | 1.4217 ± 0.0011 | 1.4192 ± 0.0011 | 1.4168 ± 0.0011 | – | – | – | –
[2], x2 = 0.7999 | – | – | – | 1.421 ± 0.0011 | 1.4185 ± 0.0011 | 1.416 ± 0.0011 | – | – | – | –
[2], x2 = 0.8947 | – | – | – | 1.4205 ± 0.0011 | 1.418 ± 0.0011 | 1.4154 ± 0.0011 | – | – | – | –

CCN(CC)CC [triethylamine] + C1COCCO1
Settings | mass density, 298.15 K [kg/m3] | mass density, 303.15 K [kg/m3] | mass density, 308.15 K [kg/m3] | refractive index, 298.15 K | refractive index, 303.15 K | refractive index, 308.15 K | speed of sound, 298.15 K [m/s] | viscosity, 298.15 K [mPa·s] | viscosity, 303.15 K [mPa·s] | viscosity, 308.15 K [mPa·s]
[1], x2 = 0 | 723.1 ± 0.2 | 718.5 ± 0.3 | 713.6 ± 0.3 | – | – | – | 1127 ± 2 | 0.363 ± 0.003 | 0.347 ± 0.003 | 0.33 ± 0.003
[1], x2 = 0.1104 | 744.6 ± 0.3 | 739.7 ± 0.3 | 734.8 ± 0.3 | – | – | – | 1139 ± 2 | 0.392 ± 0.003 | 0.372 ± 0.003 | 0.353 ± 0.003
[1], x2 = 0.2044 | 764.5 ± 0.3 | 759.5 ± 0.3 | 754.6 ± 0.3 | – | – | – | 1155 ± 2 | 0.418 ± 0.003 | 0.397 ± 0.003 | 0.377 ± 0.003
[1], x2 = 0.3028 | 787.3 ± 0.3 | 782.2 ± 0.3 | 777.1 ± 0.3 | – | – | – | 1172 ± 2 | 0.451 ± 0.004 | 0.428 ± 0.003 | 0.404 ± 0.003
[1], x2 = 0.398 | 811.3 ± 0.3 | 806.1 ± 0.4 | 800.9 ± 0.4 | – | – | – | 1189 ± 2 | 0.494 ± 0.004 | 0.466 ± 0.004 | 0.438 ± 0.004
[1], x2 = 0.4946 | 838 ± 0.4 | 832.8 ± 0.4 | 827.5 ± 0.4 | – | – | – | 1210 ± 3 | 0.542 ± 0.004 | 0.512 ± 0.004 | 0.481 ± 0.004
[1], x2 = 0.5986 | 869.7 ± 0.4 | 864.3 ± 0.4 | 859 ± 0.4 | – | – | – | 1234 ± 3 | 0.613 ± 0.005 | 0.575 ± 0.005 | 0.538 ± 0.004
[1], x2 = 0.6952 | 902.3 ± 0.5 | 896.8 ± 0.5 | 891.5 ± 0.5 | – | – | – | 1260 ± 3 | 0.697 ± 0.005 | 0.652 ± 0.005 | 0.608 ± 0.005
[1], x2 = 0.7996 | 941.2 ± 0.5 | 935.6 ± 0.5 | 930 ± 0.5 | – | – | – | 1290 ± 3 | 0.815 ± 0.006 | 0.76 ± 0.006 | 0.705 ± 0.006
[1], x2 = 0.8934 | 979.8 ± 0.5 | 974.2 ± 0.5 | 968.5 ± 0.5 | – | – | – | 1318 ± 3 | 0.958 ± 0.008 | 0.889 ± 0.007 | 0.821 ± 0.007
[2], x2 = 0 | – | – | – | 1.3983 ± 0.001 | 1.3955 ± 0.001 | 1.3926 ± 0.001 | – | – | – | –
[2], x2 = 0.1104 | – | – | – | 1.3996 ± 0.001 | 1.3969 ± 0.001 | 1.3942 ± 0.001 | – | – | – | –
[2], x2 = 0.2044 | – | – | – | 1.4014 ± 0.001 | 1.3985 ± 0.001 | 1.3956 ± 0.001 | – | – | – | –
[2], x2 = 0.3028 | – | – | – | 1.4032 ± 0.001 | 1.4002 ± 0.001 | 1.3972 ± 0.001 | – | – | – | –
[2], x2 = 0.398 | – | – | – | 1.4048 ± 0.0011 | 1.402 ± 0.0011 | 1.3994 ± 0.0011 | – | – | – | –
[2], x2 = 0.4946 | – | – | – | 1.4068 ± 0.0011 | 1.404 ± 0.0011 | 1.4013 ± 0.0011 | – | – | – | –
[2], x2 = 0.5986 | – | – | – | 1.4095 ± 0.0011 | 1.4067 ± 0.0011 | 1.4041 ± 0.0011 | – | – | – | –
[2], x2 = 0.6952 | – | – | – | 1.4117 ± 0.0011 | 1.409 ± 0.0011 | 1.4062 ± 0.0011 | – | – | – | –
[2], x2 = 0.7996 | – | – | – | 1.4147 ± 0.0011 | 1.412 ± 0.0011 | 1.4093 ± 0.0011 | – | – | – | –
[2], x2 = 0.8934 | – | – | – | 1.4176 ± 0.0011 | 1.4148 ± 0.0011 | 1.4121 ± 0.0011 | – | – | – | –
